Structures can show the parent of a compound that is named as a salt. Where two headings read alike, the source gives them in different places. *1 amine or outer side, *2 acyl side, *3 side chain or, on linkers, in order; H or OH if unused. Where a SMILES comes first, the peptide text is derived from it. Bridges are numbered along the chain shown (N, C = ends). Roman numbers before positions name the chains, in order. [ ]: non-standard residue; d: D form. Actinocin(9to1) = Cc1c2oc3c(C)ccc(C(=O)[*:1])c3nc-2c(C(=O)[*:2])c(N)c1=O; NMeV = CN[C@H](C(=O)O)C(C)C; Sar = CNCC(=O)O
Tests used:
Test in all cases: In vitro combination study with Compound 1, Cell Titer-Glo (ATP) cell viability, 72 h;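 on Call, anti-proliferative effect of combination with Compound 1, A549: Ten-by-ten dose matrices of the two agents in duplicate, compounds added 16 h post-plating, activity relative to DMSO vehicle wells, call reflects synergy evaluation from luminescence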;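 on Call, anti-proliferative effect of combination with Compound 1, COLO205: Ten-by-ten dose matrices of both agents in duplicate plus single-agent dilutions, luminescent ATP read-out, percent activity per well relative to DMSO vehicle wells, synergy call from these matrices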;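 on Call, anti-proliferative effect of combination with Compound 1, H460: Ten-by-ten dose matrices of both drugs alongside single-agent dilutions, luminescence read 72 hours after compound addition, percent activity per well versus vehicle (DMSO) plate controls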;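 on Call, anti-proliferative effect of combination with Compound 1, HCT116: combination call from 10×10 dose matrices in duplicate, graded by synergy, with percent activity per well relative to DMSO vehicle controls on the same plate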;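 on Call, anti-proliferative effect of combination with Compound 1, SW620: Ten-by-ten dose matrices of both drugs in 384-well plates, luminescent ATP read-out, synergy evaluated against single-agent and DMSO vehicle controls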
HCT116 cancer cells = type: cell-based
A549 cancer cells = type: cell-based
H460 cancer cells = type: cell-based
Description: (§1) Each combination pair was evaluated in an individual 384-well plate which contained variable doses of both compounds as single agents, as well as two, ten-by-ten matrices (in duplicate) that contained mixtures of the two test compounds. In brief, compounds were added to the cell test plates 16 hours after cell plating and then assessed for viability 72 hours later. Continuous cultures of tumor cells were maintained under standard cell culturing conditions (i.e. in a humidified chamber set at 37° C., containing atmosphere 5% carbon dioxide). […] Seventy-two hours after compound addition, ATP levels were measured to assess cell viability. Plating densities were chosen to ensure optimal linear growth over the 72 hour period.
(§2) Compound dilution and compound delivery to the assay plates were done on HighRes Robotic System (HighRes Biosolutions, Woburn, Mass., USA) with Echo™ Liquid Handler (Labcyte, Sunnyvale, Calif., USA). […] Next, these were used for compound transfer into cell assay plates. All wells were back-filled to give a constant percentage of DMSO.
(§3) The final DMSO concentration was held constant in all wells across the plate and was maintained at less than 0.5%. […] Cells treated with vehicle (DMSO) in two rows, or single compound serial dilutions in one plate columns/row served as the untreated control and single compound controls, respectively.
(§4) Compound activity in A549, COLO205, H460, HCT116, SW48, SW620 cancer cell lines was assessed using Cell Titer-Glo® (Promega [Madison, Wis., USA]). After 72 hours incubation, the plates were treated as per package insert protocol for the Promega Luminescence ATP Detection Systems. Briefly, 25 μL of cell lysis/substrate solution (provided in kit form) was added to each well and the plate was incubated at room temperature for 10 minutes. Luminescence was measured using a PHERAstar multi-label counter (BMG Labtech [Ortenberg, Germany]) or LEADseeker (GE Healthcare Life Sciences [Piscataway, N.J., USA]).
(§5) Numerical luminescence values were analyzed to generate EC50 curves and evaluate synergy. Raw Data reader files were uploaded along with automation workfiles that defined the plate and well contents. Percent activities were calculated for each well versus plate controls.
(§6) Each plate representing a single drug combination was analyzed separately. First, the viability measurements were normalized by scaling the data so that the median of the negative controls was 0 and the median of the positive controls was 100.
(§7) For the combination analysis, a response surface model was used to describe the relationship between the normalized viability and the drug concentrations. The data were fit to the model by minimizing the residual sum of squares. Based on the fitted response surface, plots of constant viability, called isobolograms, were produced.
(§8) The Combination Index and Nonlinear Blending were used as measures of drug synergy. To calculate Combination Index the 50% isobologram (which is the dose contour that has 50% viability) was used. […] A standard procedure was created to produce a call in order to characterize the viability effects for each combination (synergy, additivity, subadditivity, or antagonism). If the Combination Index existed then these measures were used to make the call.

SW620 cancer cells = type: cell-based
COLO205 cancer cells = type: cell-based, human
Description: as §1, §2, §3, §4, §5, §6, §7, §8

[1] = Table 5 drug combined with Compound 1, 72 h
[2] = DNA damaging agent combined with Compound 1, 72 h

Compound	Call, anti-proliferative effect of combination with Compound 1, HCT116 (HCT116 cancer cells; [1])	Call, anti-proliferative effect of combination with Compound 1, A549 (A549 cancer cells; [1])	Call, anti-proliferative effect of combination with Compound 1, SW620 (SW620 cancer cells; [1])	Call, anti-proliferative effect of combination with Compound 1, COLO205 (COLO205 cancer cells; [1])	Call, anti-proliferative effect of combination with Compound 1, HCT116 (HCT116 cancer cells; [2])	Call, anti-proliferative effect of combination with Compound 1, COLO205 (COLO205 cancer cells; [2])	Call, anti-proliferative effect of combination with Compound 1, H460 (H460 cancer cells; [1])	further results
Cc1cc2c(C(C)C)c(O)c(O)c(C=O)c2c(O)c1-c1c(C)cc2c(C(C)C)c(O)c(O)c(C=O)c2c1O [AT101]	–	–	–	–	–	–	–	Call, anti-proliferative effect of combination with Compound 1, HCT116 (HCT116 cancer cells): Additivity (key: Inconclusive: Any; Additivity: 0.7 to 1.3; Synergy: 0 to 0.7; Subadditivity: 1.3 to 2; Antagonism: >2); Call, anti-proliferative effect of combination with Compound 1, A549 (A549 cancer cells): Additivity (key: Inconclusive: Any; Additivity: 0.7 to 1.3; Synergy: 0 to 0.7; Subadditivity: 1.3 to 2; Antagonism: >2); Call, anti-proliferative effect of combination with Compound 1, H460 (H460 cancer cells): Additivity (key: Inconclusive: Any; Additivity: 0.7 to 1.3; Synergy: 0 to 0.7; Subadditivity: 1.3 to 2; Antagonism: >2); Call, anti-proliferative effect of combination with Compound 1, SW620 (SW620 cancer cells): Additivity (key: Inconclusive: Any; Additivity: 0.7 to 1.3; Synergy: 0 to 0.7; Subadditivity: 1.3 to 2; Antagonism: >2); Call, anti-proliferative effect of combination with Compound 1, COLO205 (COLO205 cancer cells): Additivity (key: Inconclusive: Any; Additivity: 0.7 to 1.3; Synergy: 0 to 0.7; Subadditivity: 1.3 to 2; Antagonism: >2)
CCNC(=O)c1noc(-c2cc(C(C)C)c(O)cc2O)c1-c1ccc(CN2CCOCC2)cc1 [AUY-922]	Additivity (0.7 to 1.3)	Additivity (0.7 to 1.3)	Additivity (0.7 to 1.3)	Additivity (0.7 to 1.3)	–	–	–	–
CN1CC[C@H](c2c(O)cc(O)c3c(=O)cc(-c4ccccc4Cl)oc23)[C@H](O)C1 [Alvocidib]	Additivity (0.7 to 1.3)	Additivity (0.7 to 1.3)	Subadditivity (1.3 to 2)	Additivity (0.7 to 1.3)	–	–	–	–
C[C@@]1(CO)[C@H](O)CC[C@@]2(C)[C@H]1CC[C@H]1C[C@@H]3C[C@@]12CC[C@]3(O)COC(=O)CN.Cl [Aphidicolin glycinate]	–	–	–	–	Synergy (0 to 0.7)	Additivity (0.7 to 1.3)	–	Call, anti-proliferative effect of combination with Compound 1, A549 (A549 cancer cells): Additivity (key: Inconclusive: Any; Additivity: 0.7 to 1.3; Synergy: 0 to 0.7; Subadditivity: 1.3 to 2; Antagonism: >2); Call, anti-proliferative effect of combination with Compound 1, H460 (H460 cancer cells; [2]): Additivity (0.7 to 1.3); Call, anti-proliferative effect of combination with Compound 1, SW620 (SW620 cancer cells; [2]): Additivity (0.7 to 1.3)
Nc1cc(C(F)(F)F)c(-c2cc(N3CCOCC3)nc(N3CCOCC3)n2)cn1 [BKM-120]	Additivity (0.7 to 1.3)	Additivity (0.7 to 1.3)	Additivity (0.7 to 1.3)	Additivity (0.7 to 1.3)	–	–	Additivity (0.7 to 1.3)	–
CO/C1=C\C(C)=C\[C@@H](C)[C@@H](O)[C@@H](C)C/C(C)=C/C=C/[C@H](OC)[C@@H]([C@@H](C)[C@@H](O)[C@H](C)[C@@]2(O)C[C@@H](O)[C@H](C)[C@@H](C(C)C)O2)OC1=O [Bafilomycin A]	Additivity (0.7 to 1.3)	–	Additivity (0.7 to 1.3)	Subadditivity (1.3 to 2)	–	–	Additivity (0.7 to 1.3)	Call, anti-proliferative effect of combination with Compound 1, A549 (A549 cancer cells): Additivity (key: Inconclusive: Any; Additivity: 0.7 to 1.3; Synergy: 0 to 0.7; Subadditivity: 1.3 to 2; Antagonism: >2)
C[C@H]1CCC/C=C/[C@@H]2C[C@H](O)C[C@H]2[C@H](O)/C=C/C(=O)O1 [Brefeldin A]	–	–	–	–	Additivity (0.7 to 1.3)	Subadditivity (1.3 to 2)	–	Call, anti-proliferative effect of combination with Compound 1, A549 (A549 cancer cells; [2]): Additivity (0.7 to 1.3); Call, anti-proliferative effect of combination with Compound 1, H460 (H460 cancer cells; [2]): Additivity (0.7 to 1.3); Call, anti-proliferative effect of combination with Compound 1, SW620 (SW620 cancer cells; [2]): Additivity (0.7 to 1.3)
CS(=O)(=O)OCCCCOS(C)(=O)=O [Busulfan]	–	–	–	–	–	Synergy (0 to 0.7)	–	–
C=CCNC1=C2C[C@@H](C)C[C@H](OC)[C@H](O)[C@@H](C)/C=C(\C)[C@H](OC(N)=O)[C@@H](OC)/C=C\C=C(/C)C(=O)NC(=CC1=O)C2=O [Compound 17-AAG]	Additivity (0.7 to 1.3)	Additivity (0.7 to 1.3)	Additivity (0.7 to 1.3)	Additivity (0.7 to 1.3)	–	–	Additivity (0.7 to 1.3)	–
CO[C@H]1/C=C\C=C(/C)C(=O)NC2=CC(=O)C(NCCN(C)C)=C(C[C@@H](C)C[C@H](OC)[C@H](O)[C@@H](C)/C=C(\C)[C@@H]1OC(N)=O)C2=O [Compound 17-DMAG]	Additivity (0.7 to 1.3)	Subadditivity (1.3 to 2)	Additivity (0.7 to 1.3)	Additivity (0.7 to 1.3)	–	–	Additivity (0.7 to 1.3)	–
Nc1ccn([C@@H]2O[C@H](CO)[C@@H](O)[C@@H]2O)c(=O)n1 [Cytarabine]	–	–	–	–	Additivity (0.7 to 1.3)	Synergy (0 to 0.7)	–	Call, anti-proliferative effect of combination with Compound 1, A549 (A549 cancer cells; [2]): Additivity (0.7 to 1.3); Call, anti-proliferative effect of combination with Compound 1, H460 (H460 cancer cells; [2]): Additivity (0.7 to 1.3); Call, anti-proliferative effect of combination with Compound 1, SW620 (SW620 cancer cells; [2]): Synergy (0 to 0.7)
CN(C)/N=N/c1[nH]cnc1C(N)=O [Dacarbazine]	–	–	–	–	Additivity (0.7 to 1.3)	–	–	–
Cc1c2oc3c(C)ccc(C(=O)N[C@@H]4C(=O)N[C@H](C(C)C)C(=O)N5CCC[C@H]5C(=O)N(C)CC(=O)N(C)[C@@H](C(C)C)C(=O)O[C@@H]4C)c3nc-2c(C(=O)N[C@@H]2C(=O)N[C@H](C(C)C)C(=O)N3CCC[C@H]3C(=O)N(C)CC(=O)N(C)[C@@H](C(C)C)C(=O)O[C@@H]2C)c(N)c1=O [Dactinomycin] (I: T[dV]P[Sar][NMeV] / II: T[dV]P[Sar][NMeV]; ester I:1-I:C, II:1-II:C; linker I:N-II:N via Actinocin(9to1))	–	–	–	–	Additivity (0.7 to 1.3)	Additivity (0.7 to 1.3)	–	Call, anti-proliferative effect of combination with Compound 1, A549 (A549 cancer cells): Additivity (key: Inconclusive: Any; Additivity: 0.7 to 1.3; Synergy: 0 to 0.7; Subadditivity: 1.3 to 2; Antagonism: >2); Call, anti-proliferative effect of combination with Compound 1, H460 (H460 cancer cells; [2]): Additivity (0.7 to 1.3); Call, anti-proliferative effect of combination with Compound 1, SW620 (SW620 cancer cells; [2]): Additivity (0.7 to 1.3)
COc1cccc2c1C(=O)c1c(O)c3c(c(O)c1C2=O)C[C@@](O)(C(=O)CO)C[C@@H]3O[C@H]1C[C@H](N)[C@H](O)[C@H](C)O1 [Doxorubicin hydrochloride]	–	–	–	–	Subadditivity (1.3 to 2)	Synergy (0 to 0.7)	–	Call, anti-proliferative effect of combination with Compound 1, A549 (A549 cancer cells; [2]): Synergy (0 to 0.7); Call, anti-proliferative effect of combination with Compound 1, H460 (H460 cancer cells; [2]): Synergy (0 to 0.7); Call, anti-proliferative effect of combination with Compound 1, SW620 (SW620 cancer cells; [2]): Additivity (0.7 to 1.3)
CN1CC[C@H](c2c(O)cc(O)c3c(=O)cc(-c4ccccc4Cl)oc23)[C@H](O)C1 [Flavopiridol]	–	–	–	–	–	–	Additivity (0.7 to 1.3)	–
CS(=O)(=O)N1CCN(Cc2cc3nc(-c4cccc5[nH]ncc45)nc(N4CCOCC4)c3s2)CC1 [GDC-0941]	Synergy (0 to 0.7)	Additivity (0.7 to 1.3)	Additivity (0.7 to 1.3)	Additivity (0.7 to 1.3)	–	–	Synergy (0 to 0.7)	–
S=c1nc[nH]c2nc[nH]c12 [Mercaptopurine]	–	–	–	–	Additivity (0.7 to 1.3)	Additivity (0.7 to 1.3)	–	Call, anti-proliferative effect of combination with Compound 1, H460 (H460 cancer cells; [2]): Additivity (0.7 to 1.3); Call, anti-proliferative effect of combination with Compound 1, SW620 (SW620 cancer cells; [2]): Subadditivity (1.3 to 2)
Nc1nc(OCc2ccccc2)c2nc[nH]c2n1 [O6-Benzylguanine]	–	–	–	–	–	Additivity (0.7 to 1.3)	–	–
CO[C@@H]1[C@H](N(C)C(=O)c2ccccc2)C[C@H]2O[C@]1(C)n1c3ccccc3c3c4c(c5c6ccccc6n2c5c31)C(=O)NC4 [PKC412]	_Additivity	–	Additivity (0.7 to 1.3)	Subadditivity (1.3 to 2)	–	–	Antagonism (>2)	–
CCCS(=O)(=O)Nc1ccc(F)c(C(=O)c2c[nH]c3ncc(-c4ccc(Cl)cc4)cc23)c1F [PLX4032]	Additivity (0.7 to 1.3)	Additivity (0.7 to 1.3)	–	Additivity (0.7 to 1.3)	–	–	Additivity (0.7 to 1.3)	–
Cc1[nH]c2ccccc2c1CCNCc1ccc(/C=C/C(=O)NO)cc1 [Panobinostat]	Additivity (0.7 to 1.3)	Additivity (0.7 to 1.3)	Additivity (0.7 to 1.3)	Subadditivity (1.3 to 2)	–	–	Additivity (0.7 to 1.3)	–
Tunicamycin	Synergy (0 to 0.7)	–	Additivity (0.7 to 1.3)	Additivity (0.7 to 1.3)	–	–	Additivity (0.7 to 1.3)	–

From patent US20220323443A1, “COMBINATION THERAPY FOR CANCER TREATMENT” (TAKEDA PHARMACEUTICAL COMPANY LIMITED, priority 2019, published 2022)
